Assay in all cases: microbe, parasite or virus in culture
What all share (format): cell-based, M. tuberculosis

Assay [1] concerns Isoniazid and Rifampin Resistant TB. The settings on record: Mycobacterium tuberculosis, read-out: inhibition of Isoniazid and Rifampin Resistant TB.
Assay [2] concerns Pyrazinamide Resistant TB. The settings on record: Mycobacterium tuberculosis, read-out: inhibition of Pyrazinamide Resistant TB growth.
The subject of another assay is Isoniazid Resistant TB. The settings on record: Mycobacterium tuberculosis, read-out: inhibition of Isoniazid Resistant TB growth.

Here are results for 1 compound from patent US5827895A, “Hexahydrolupulones useful as anticancer agents” (Regents of the University of Minnesota, priority 1996, dated 1998).

On to `CC(C)CCC1=C(O)C(C(=O)C(C)C)=C(O)C(CCC(C)C)(CCC(C)C)C1=O` [HHC, hexahydrocolupulone], for which the inhibition at 75 µM was determined as 92% in assay [1], 98% in assay [2] and 91% in the assay with Isoniazid Resistant TB.
